The assay deals with T1, USP28 (His-tagged USP28-FL-mammalian) (Homo sapiens, UniProt Q96RU2).
T1 construct: Expression of USP28 (1-1077)-TEV-6*His (pTT5 vector); made in house; host or cells: Expi293f cells (pTT5 vector)
T1 sequence (Q96RU2 1-1077): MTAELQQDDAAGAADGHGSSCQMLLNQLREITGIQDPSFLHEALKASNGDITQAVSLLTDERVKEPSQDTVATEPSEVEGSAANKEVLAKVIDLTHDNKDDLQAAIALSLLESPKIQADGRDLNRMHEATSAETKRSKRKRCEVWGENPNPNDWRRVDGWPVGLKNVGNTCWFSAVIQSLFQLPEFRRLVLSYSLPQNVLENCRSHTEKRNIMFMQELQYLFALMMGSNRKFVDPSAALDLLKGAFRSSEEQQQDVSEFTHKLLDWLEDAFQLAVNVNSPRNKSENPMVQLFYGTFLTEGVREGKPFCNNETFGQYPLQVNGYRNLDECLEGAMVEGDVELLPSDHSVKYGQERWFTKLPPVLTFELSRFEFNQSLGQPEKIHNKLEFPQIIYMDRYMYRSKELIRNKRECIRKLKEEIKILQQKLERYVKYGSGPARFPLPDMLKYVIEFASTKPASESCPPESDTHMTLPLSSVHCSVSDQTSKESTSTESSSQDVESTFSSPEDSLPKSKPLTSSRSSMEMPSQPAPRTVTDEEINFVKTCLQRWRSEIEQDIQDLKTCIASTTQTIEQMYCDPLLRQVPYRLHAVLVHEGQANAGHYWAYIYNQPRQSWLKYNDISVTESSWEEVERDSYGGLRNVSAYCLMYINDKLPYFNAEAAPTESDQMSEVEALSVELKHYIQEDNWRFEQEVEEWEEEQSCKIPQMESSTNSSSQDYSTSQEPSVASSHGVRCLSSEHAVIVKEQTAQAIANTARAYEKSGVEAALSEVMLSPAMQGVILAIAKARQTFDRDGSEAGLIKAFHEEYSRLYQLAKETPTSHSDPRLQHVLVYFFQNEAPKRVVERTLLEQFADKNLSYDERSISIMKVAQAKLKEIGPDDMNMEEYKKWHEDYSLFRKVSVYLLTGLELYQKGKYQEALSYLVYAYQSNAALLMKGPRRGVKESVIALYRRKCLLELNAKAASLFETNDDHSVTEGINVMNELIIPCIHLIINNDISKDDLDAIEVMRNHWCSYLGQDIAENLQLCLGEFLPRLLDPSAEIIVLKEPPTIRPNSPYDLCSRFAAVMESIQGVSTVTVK
Put plainly: Ubiquitin-Rhodamine 110 Assay for USP28 Activity, Example A-1(a). The settings on record: Ubiquitin-Rhodamine 110 assay, Example A-1(a); read-out: USP28 A-1(a) IC50 range. It counts as biochemical. The essentials: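 Full-length His-tagged human USP28 (1-1077, Expi293f-expressed), […], with 25 nM Ub-Rh110 (<<Km) in pH 8.0 Tris buffer with BME, BGG, Triton X-100. 10-point dilutions (25 μM-1.3 nM), 45 min at room temperature, citric acid stop, fluorescence 485/535 nm; IC50 by 4-parameter fit.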

These results are taken from US11524966B1 (Valo Early Discovery, Inc., priority 2017, dated 2022).

Some results are limits rather than exact numbers.

Regarding `CO[C@]1(C)CN(c2ccc3c(n2)CC[C@H](NC(=O)c2sc4nc(C)cnc4c2N)C3)C[C@H]1N` [Example 280, 7-amino-N-[(6S)-2-[(3R,4R)-4-amino-3-methoxy-3-methylpyrrolidin-1-yl]-5,6,7,8-tetrahydroquinolin-6-yl]-3-methylthieno[2,3-b]pyrazine-6-carboxamide], the IC50 (commonly the point on the concentration scale where inhibition reaches its midpoint) is 0.2 to 2 µM.
On to `CO[C@@]1(C)CN(c2ccc3c(c2)OC[C@H](NC(=O)c2sc4nc(C)ccc4c2N)C3)C[C@@H]1N` [Example 281, 3-amino-N-[(3R)-7-[(3S,4S)-4-amino-3-methoxy-3-methylpyrrolidin-1-yl]-3,4-dihydro-2H-1-benzopyran-3-yl]-6-methylthieno[2,3-b]pyridine-2-carboxamide], for which the half-inhibitory concentration (IC50) was in the range of 0.001 to 0.05 µM.
In the case of `CO[C@]1(C)CN(c2ccc3c(c2)OC[C@H](NC(=O)c2sc4nc(C)ccc4c2N)C3)C[C@H]1N` [Example 282, 3-amino-N-[(3R)-7-[(3R,4R)-4-amino-3-methoxy-3-methylpyrrolidin-1-yl]-3,4-dihydro-2H-1-benzopyran-3-yl]-6-methylthieno[2,3-b]pyridine-2-carboxamide], the IC50 lay in the range of 0.001 to 0.05 µM.
For `CO[C@@H]1[C@@H](N)CN(c2ccc3c(c2)OC[C@H](NC(=O)c2sc4nc(C)ccc4c2N)C3)[C@H]1C` [Example 283, 3-amino-N-[(3R)-7-[(2S,3R,4S)-4-amino-3-methoxy-2-methylpyrrolidin-1-yl]-3,4-dihydro-2H-1-benzopyran-3-yl]-6-methylthieno[2,3-b]pyridine-2-carboxamide], the IC50 lay in the range of 0.001 to 0.05 µM.
In the case of `CO[C@H]1[C@H](N)CN(c2ccc3c(c2)OC[C@H](NC(=O)c2sc4nc(C)ccc4c2N)C3)[C@@H]1C` [Example 284, 3-amino-N-[(3R)-7-[(2R,3S,4R)-4-amino-3-methoxy-2-methylpyrrolidin-1-yl]-3,4-dihydro-2H-1-benzopyran-3-yl]-6-methylthieno[2,3-b]pyridine-2-carboxamide], the IC50 lay within 0.001 to 0.05 µM.
In the case of `Cc1ccc2c(N)c(C(=O)N[C@H]3CCc4nc(N5C[C@H](OC6CCC6)[C@@H](N)C5)ccc4C3)sc2n1` [Example 285, 3-amino-N-[(6S)-2-[(3S,4S)-3-amino-4-cyclobutoxypyrrolidin-1-yl]-5,6,7,8-tetrahydroquinolin-6-yl]-6-methylthieno[2,3-b]pyridine-2-carboxamide], the concentration for half-maximal inhibition (IC50) is 0.05 to 0.2 µM.
As to `CO[C@H]1CN(c2ccc3c(n2)OC[C@H](NC(=O)c2sc4nc(C)cc(C)c4c2N)C3)C[C@@H]1N` [Example 286, 3-amino-N-[(3R)-7-[(3S,4S)-3-amino-4-methoxypyrrolidin-1-yl]-2H,3H,4H-pyrano[2,3-b]pyridin-3-yl]-4,6-dimethylthieno[2,3-b]pyridine-2-carboxamide], the IC50 fell in the range of 0.05 to 0.2 µM.
Turning to `Cc1ccc2c(N)c(C(=O)N[C@H]3COc4nc(N5C[C@H](OC(C)C)[C@@H](N)C5)ccc4C3)sc2n1` [Example 287, 3-amino-N-[(3R)-7-[(3S,4S)-3-amino-4-(propan-2-yloxy)pyrrolidin-1-yl]-2H,3H,4H-pyrano[2,3-b]pyridin-3-yl]-6-methylthieno[2,3-b]pyridine-2-carboxamide], the IC50 fell in the range of 0.2 to 2 µM.
For `Cc1ccc2c(N)c(C(=O)N[C@H]3COc4cc(N5CC[C@@H](N)C5)ccc4C3)sc2n1` [Example 288, 3-amino-N-[(3R)-7-[(3R)-3-aminopyrrolidin-1-yl]-3,4-dihydro-2H-1-benzopyran-3-yl]-6-methylthieno[2,3-b]pyridine-2-carboxamide], the IC50 is 0.001 to 0.05 µM.
Consider `CO[C@]12CNC[C@H]1CN(c1ccc3c(c1)OC[C@H](NC(=O)c1sc4nc(C)ccc4c1N)C3)C2` [Example 291, N-[(3R)-7-[(3aS,6aS)-3a-methoxy-octahydropyrrolo[3,4-c]pyrrol-2-yl]-3,4-dihydro-2H-1-benzopyran-3-yl]-3-amino-6-methylthieno[2,3-b]pyridine-2-carboxamide], for which the IC50 was 0.001 to 0.05 µM.
With `CO[C@@]12CNC[C@@H]1CN(c1ccc3c(c1)OC[C@H](NC(=O)c1sc4nc(C)ccc4c1N)C3)C2` [Example 292, N-[(3R)-7-[(3aR,6aR)-3a-methoxy-octahydropyrrolo[3,4-c]pyrrol-2-yl]-3,4-dihydro-2H-1-benzopyran-3-yl]-3-amino-6-methylthieno[2,3-b]pyridine-2-carboxamide] the figure was 0.001 to 0.05 µM; with `CO[C@H]1CN(c2ccc3c(n2)CC[C@H](NC(=O)c2sc4nc(C)cc(C)c4c2N)C3)C[C@@H]1NC(C)=O` [Example 293, 3-amino-N-[(6S)-2-[(3S,4S)-3-acetamido-4-methoxypyrrolidin-1-yl]-5,6,7,8-tetrahydroquinolin-6-yl]-4,6-dimethylthieno[2,3-b]pyridine-2-carboxamide], 0.05 to 0.2 µM; with `Cc1ccc2c(N)c(C(=O)N[C@H]3COc4cc(N5C[C@H](C(F)F)[C@@H](N)C5)ccc4C3)sc2n1` [Example 294, 3-amino-N-[(3R)-7-[(3R,4S)-3-amino-4-(difluoromethyl)pyrrolidin-1-yl]-3,4-dihydro-2H-1-benzopyran-3-yl]-6-methylthieno[2,3-b]pyridine-2-carboxamide], 0.001 to 0.05 µM.
Consider `Cc1ccc2c(N)c(C(=O)N[C@H]3COc4cc(N5C[C@@H](N)[C@H](C(F)F)C5)ccc4C3)sc2n1` [Example 295, 3-amino-N-[(3R)-7-[(3S,4R)-3-amino-4-(difluoromethyl)pyrrolidin-1-yl]-3,4-dihydro-2H-1-benzopyran-3-yl]-6-methylthieno[2,3-b]pyridine-2-carboxamide], for which the IC50 fell in the range of 0.001 to 0.05 µM.
Consider `COC[C@@H]1CN(c2ccc3c(n2)CC[C@H](NC(=O)c2sc4nc(C)cc(C)c4c2N)C3)C[C@@H]1N` [Example 296, 3-amino-N-[(6S)-2-[(3R,4R)-3-amino-4-(methoxymethyl)pyrrolidin-1-yl]-5,6,7,8-tetrahydroquinolin-6-yl]-4,6-dimethylthieno[2,3-b]pyridine-2-carboxamide-], for which the IC50 was 0.05 to 0.2 µM.
As to `COC[C@H]1CN(c2ccc3c(n2)CC[C@H](NC(=O)c2sc4nc(C)cc(C)c4c2N)C3)C[C@H]1N` [Example 297, 3-amino-N-[(6S)-2-[(3S,4S)-3-amino-4-(methoxymethyl)pyrrolidin-1-yl]-5,6,7,8-tetrahydroquinolin-6-yl]-4,6-dimethylthieno[2,3-b]pyridine-2-carboxamide], the IC50 was in the range of 0.001 to 0.05 µM.
With `COC[C@@H]1CN(c2ccc3c(n2)CC[C@H](NC(=O)c2sc4nc(C)cnc4c2N)C3)C[C@@H]1N` [Example 298, 7-amino-N-[(6S)-2-[(3R,4R)-3-amino-4-(methoxymethyl)pyrrolidin-1-yl]-5,6,7,8-tetrahydroquinolin-6-yl]-3-methylthieno[2,3-b]pyrazine-6-carboxamide], the IC50 lay in the range of 0.2 to 2 µM.
Turning to `COC[C@H]1CN(c2ccc3c(n2)CC[C@H](NC(=O)c2sc4nc(C)cnc4c2N)C3)C[C@H]1N` [Example 299, 7-amino-N-[(6S)-2-[(3S,4S)-3-amino-4-(methoxymethyl)pyrrolidin-1-yl]-5,6,7,8-tetrahydroquinolin-6-yl]-3-methylthieno[2,3-b]pyrazine-6-carboxamide], the IC50 fell in the range of 0.05 to 0.2 µM.
With `COC[C@@H]1CN(c2nc3c(cc2F)C[C@@H](NC(=O)c2sc4nc(C)ccc4c2N)CC3)C[C@@H]1N` [Example 300, 3-amino-N-[(6S)-2-[(3R,4R)-3-amino-4-(methoxymethyl)pyrrolidin-1-yl]-3-fluoro-5,6,7,8-tetrahydroquinolin-6-yl]-6-methylthieno[2,3-b]pyridine-2-carboxamide], the IC50 lay within 0.2 to 2 µM.
As to `COC[C@H]1CN(c2nc3c(cc2F)C[C@@H](NC(=O)c2sc4nc(C)ccc4c2N)CC3)C[C@H]1N` [Example 301, 3-amino-N-[(6S)-2-[(3S,4S)-3-amino-4-(methoxymethyl)pyrrolidin-1-yl]-3-fluoro-5,6,7,8-tetrahydroquinolin-6-yl]-6-methylthieno[2,3-b]pyridine-2-carboxamide], the IC50 is > 2 µM.
In the case of `Cc1ccc2c(N)c(C(=O)N[C@H]3COc4cc(N5C[C@@H]6CCN[C@@H]6C5)ccc4C3)sc2n1` [Example 304, N-[(3R)-7-[(3aS,6aS)-octahydropyrrolo[3,4-b]pyrrol-5-yl]-3,4-dihydro-2H-1-benzopyran-3-yl]-3-amino-6-methylthieno[2,3-b]pyridine-2-carboxamide], the IC50 lay within 0.001 to 0.05 µM.
